# Measured values reported in US20050277600A1, “Compositions and methods of use of dimer digallates” (Mars, Incroporated, priority 2004, published 2005).
# How the values were obtained:
# [1] = system: rabbit aortic rings; test: Relaxation of norepinephrine pre-constricted rabbit aortic rings ex vivo; conditions: for Max Relaxation: Experiment 3, 100 μM; for Aortic Ring Effective Conc,: Table 1 summary
# Description: Several compounds were investigated for their effect on nitric oxide (NO) production and vasorelaxation using serum-free human umbilical vein endothelial cell (HUVEC) culture system in vitro and rabbit aortic ring model ex vivo, respectively. NO production by endothelial cells and relaxation of pre-constricted aortic rings are two main markers for evaluating vascular effects of test compounds. Effect of different procyanidins on endothelium-dependent relaxation was tested in an ex vivo experiment performed as previously described by Karim et al., J. Nutrl Suppl., 130 (8S): […]-[…] (2000), the relevant portions of which are hereby incorporated herein by reference. The advantage of using this method is that it assesses functional vascular end points. […] In summary, rabbit aortic rings were obtained from male New Zealand White rabbits. Following isolation, the rings were mounted in oxygenated Kreb's buffer, and pre-constricted with norepinephrine (NE) (10^-6 M). […] A positive control acetylcholine (10^-9 to 10^-4 M) and a negative control L-NAME were included in the experiment. Use of L-NAME, which is a NO synthase (NOS) inhibitor, allows for differentiating between endothelium dependent and endothelium independent relaxation events. […] The relaxation response was measured as a function of the decrease in the tension (g) exerted by the aortic rings over time […]. Data obtained were expressed as a percent relaxation of the norepinephrine (NE) constricted rings. The same statistical approach as described above was used. Dose response curves were obtained by plotting the average percent relaxation (+/-SE) against the concentrations used.
# [2] = system: human umbilical vein endothelial cell (HUVEC) NO production; test: HUVEC NO production (NOx in cell culture medium, chemiluminescence); type: cell-based; conditions: for HUVEC Cells NOx, 2 hr / HUVEC Cells NOx, 24 hr / HUVEC Cells NOx, 5 d: Table 2 summary; for NO production, positive and negative controls: Experiment 1, acute, 2 hours
# Description: Several compounds were investigated for their effect on nitric oxide (NO) production and vasorelaxation using serum-free human umbilical vein endothelial cell (HUVEC) culture system in vitro and rabbit aortic ring model ex vivo, respectively. NO production by endothelial cells and relaxation of pre-constricted aortic rings are two main markers for evaluating vascular effects of test compounds.
# HUVECs obtained from a single donor were cultured in serum free, low protein (0.5 g/l), antibiotic-free cell culture medium supplemented with essential growth factors, nutrients and minerals. […] The cell culture medium was substituted with apo-transferrin, superoxide dismutase, and catalase to exclude secondary effects of test compounds involving their auto-oxidation mediated hydrogen peroxide formation.
# NO production was evaluated by measuring the total amount of all major nitric oxide end products (NOx, including nitrate, nitrite, nitrosothiols) present in the cell culture medium. […] The amount of NO released from the culture medium was subsequently evaluated by measuring the chemiluminescence emitted during the stoichiometrical reaction between ozone and NO using a NO Analyzer (Sievers Instruments, Inc. Boulder, Colo.).
# The data presented herein were obtained from three experiments and were expressed as the concentration of NO present (in μmol/l) (as NOx) in the cell culture medium+/−standard deviation (SD). The data were corrected for the NOx intrinsically present in the fully supplemented cell culture medium and normalized with respect to the volume of media from which the sample was drawn. Data were analyzed using Student's t-test with a 95% level of confidence. P values equal to or less than 0.05 were defined as statistically significant.
# For the acute effect test, HUVECs were incubated with the test compounds for 2 hours at concentrations of 100 nM, 1 μM, and 10 μM at 37° C. and 5% CO2. […] (FIG. 1)
# For the chronic effect test, HUVECs were incubated with 5 subsequent doses of test compounds, each for 24 hours. After each 24 hour treatment, culture medium was replaced.
# For the acute effect test, HUVECs were incubated with a single dose of the test compounds for 24 hours at concentrations of 100 nM, 1 μM, and 10 μM at 37° C. and 5% CO2.
# [3] = Experiment 4, 10^−9M -10^4M (so in the source)
compound,measurement,setting,value
"O=C(O[C@H]1[C@H](c2c(O)cc(O)c3c2O[C@H](c2ccc(O)c(O)c2)[C@@H](OC(=O)c2cc(O)c(O)c(O)c2)C3)c2c(O)cc(O)cc2O[C@@H]1c1ccc(O)c(O)c1)c1cc(O)c(O)c(O)c1 [C-(4α→8)-C digallate, (+)-Catechin-(4α,8)-(+)-Catechin Digallate]","relaxation response, percent relaxation of NE constricted rings","[1]; Experiment 2, 10^−4 M",71.7+/−11.6%
same,Max Relaxation,[1],72%
same,"Aortic Ring Effective Conc,",[1],100 µM
"Oc1cc(O)c2c(c1)O[C@H](c1ccc(O)c(O)c1)[C@@H](O)[C@@H]2c1c(O)cc(O)c2c1O[C@H](c1ccc(O)c(O)c1)[C@@H](O)C2 [C-(4α→8)-C, (+)-Catechin-(4α,8)-(+)-Catechin]","relaxation response, percent relaxation of NE constricted rings","[1]; Experiment 1, 10^−4 M",60.80+/−15.09%
same,Max Relaxation,[1],61%
same,"Aortic Ring Effective Conc,",[1],100 µM
same,NO production,"[2]; Experiment 1, 24 h after single dose, 10 μM",increased NO production
same,NO production,"[2]; Experiment 1, chronic, 5 subsequent 24 hour doses",did not modulate NO production
same,"HUVEC Cells NOx, 2 hr",[2],no effect
same,"HUVEC Cells NOx, 24 hr",[2],"10 uM, sign. NOx incr."
same,"HUVEC Cells NOx, 5 d",[2],no effect
Oc1cc(O)c2c(c1)O[C@H](c1ccc(O)c(O)c1)[C@@H](O)[C@@H]2c1c(O)cc(O)c2c1O[C@H](c1ccc(O)c(O)c1)[C@H](O)C2 [C-(4α→8)-EC],relaxation response,"[1]; Experiment 2, 10^−9 to 10^−4 M",No significant relaxation response
"O=C(O[C@H]1[C@@H](c2c(O)cc(O)c3c2O[C@H](c2ccc(O)c(O)c2)[C@@H](OC(=O)c2cc(O)c(O)c(O)c2)C3)c2c(O)cc(O)cc2O[C@@H]1c1ccc(O)c(O)c1)c1cc(O)c(O)c(O)c1 [C-(4β→8)-C digallate, (+)-Catechin-(4β,8)-(+)-Catechin Digallate]","relaxation response, percent relaxation of NE constricted rings","[1]; Experiment 2, 10^−4 M",72.6+/−9.8%
same,Max Relaxation,[1],73%
same,"Aortic Ring Effective Conc,",[1],100 µM
"Oc1cc(O)c2c(c1)O[C@H](c1ccc(O)c(O)c1)[C@@H](O)[C@H]2c1c(O)cc(O)c2c1O[C@H](c1ccc(O)c(O)c1)[C@@H](O)C2 [C-(4β→8)-C, (+)-Catechin-(4β,8)-(+)-Catechin]",relaxation response,"[1]; Experiment 1, 10^−9 to 10^−4 M",No significant relaxation response
same,relaxation response,"[1]; Experiment 2, 10^−9 to 10^−4 M",No significant relaxation response
same,HUVEC NO production,"[2]; Experiment 2, chronic, 5 subsequent 24 hour doses",increase in HUVEC NO production
same,"HUVEC Cells NOx, 2 hr",[2],no effect
same,"HUVEC Cells NOx, 24 hr",[2],no effect
same,"HUVEC Cells NOx, 5 d",[2],"10 uM, significant NOx increase"
Cc1c(O)c(C2c3c(O)cc(O)cc3OC(c3ccc(O)c(O)c3)C2O)c(O)c2c1OC(c1ccc(O)c(O)c1)C(O)C2 (stereo not drawn) [EC(4β→6)EC-8methyl],relaxation response,"[1]; Experiment 2, 10^−9 to 10^−4 M",No significant relaxation response
"O=C(O[C@@H]1[C@@H](c2c(O)cc(O)c3c2O[C@H](c2ccc(O)c(O)c2)[C@@H](OC(=O)c2cc(O)c(O)c(O)c2)C3)c2c(O)cc(O)cc2O[C@@H]1c1ccc(O)c(O)c1)c1cc(O)c(O)c(O)c1 [EC-(4β→8)-C digallate, (−)-Epicatechin-(4β,8)-(+)-Catechin Digallate]","relaxation response, percent relaxation of NE constricted rings","[1]; Experiment 2, 10^−4 M",56.7+/−15.4%
same,Max Relaxation,[1],57%
same,"Aortic Ring Effective Conc,",[1],100 µM
"Oc1cc(O)c2c(c1)O[C@H](c1cc(O)c(O)c(O)c1)[C@H](O)C2 [EGC, Epigallocatechin, reference compound]",relaxation response,[1]; [3],No significant relaxation response
"O=C(O)c1cc(O)c(O)c(O)c1 [Gallic Acid, reference compound]",relaxation response,[1]; [3],No significant relaxation response
"COC(=O)[C@@H](N)CCCNC(=N)N[N+](=O)[O-] [L-NAME, reference compound]",relaxation responses after pre-treatment with NOS inhibitor,[1]; vessels pre-treated with negative control,relaxation responses were attenuated
"CNC(=N)NCCC[C@H](N)C(=O)O [L-NNMA, reference compound]","NO production, positive and negative controls",[2]; compared to vehicle,completely attenuated the acetylcholine and histamine-NO production
same,"NOx production, positive and negative controls","[2]; Experiment 2, single dose, 24 hours, compared to vehicle",completely attenuated the acetylcholine-induced NO production
"CC(=O)OCC[N+](C)(C)C [acetylcholine, reference compound]",concentration producing a relaxation response,[1]; positive control,10^−7 M
same,concentration reaching maximal relaxation,[1]; positive control,10^−6 M
"NCCc1c[nH]cn1 [histamine, reference compound]","NO production, positive and negative controls",[2]; compared to vehicle,statistically significant increase in NO production
